Assay results reported in paper PMC10095747, “Modulatory Effects of Atractylodin and β-Eudesmol on Human Cytochrome P450 Enzymes: Potential Drug-Drug Interactions” (Molecules, 2023).

Experiments:
[1] = system: all rCYP450s (rCYP1A2, rCYP2C9, rCYP2C19, rCYP2D6, rCYP3A4); assay: luminogenic CYP450 inhibition assay, statement over all five rCYP450s
Source text: The luminescent cytochrome P450 assay was used to determine CYP450-mediated (CYP1A2, 2C9, 2C19, 2D6, and 3A4) metabolism of atractylodin and β-eudesmol. The assay consisted of each recombinant human CYP450 (rCYP450), control membranes lacking P450 activity, a luminogenic CYP450 substrate (luciferin-ME substrate for rCYP1A2, luciferin-H substrate for rCYP2C9, luciferin-H EGE substrate for rCYP2C19, luciferin-ME EGE substrate for rCYP2D6, and luciferin-IPA substrate for rCYP3A4), KPO4 buffer, luciferin free water, NADPH regeneration system, and a luciferin detection reagent. The rCYP450 enzymes were generated from a baculovirus-infected insect cell expression system. The concentrations of the recombinant CYPs used were 0.5 (rCYP1A2 and rCYP2C9), 0.25 (rCYP2C19 and rCYP2D6) or 0.2 (rCYP3A4) pmol (0.5μL) per reaction. […] A luciferin product was produced after adding 25 µL of NADPH Regeneration System (solution A, solution B, and luciferin-free water) and incubated at 37 °C for 10 (rCYP1A2 and rCYP3A4), 20 (rCYP2C19 and rCYP2C9) or 30 (rCYP2D6) minutes. The reaction was stopped and converted to a luminescent signal after adding Luciferin Detection Reagent (50 µL) and incubated at 25 °C for 20 min. The luminescence signals obtained were determined using a Varioskan® Flash microplate reader (Waltham, MA, USA). The magnitude of luminescence in all of the samples represented CYP450 activity. […]

[2] = system: hCYP1A2; parameters: method as in PMID 35139770; conditions: ligand-binding difference spectroscopy; cited from earlier work
[3] = system: hCYP3A4; parameters: method as in PMID 35139770; conditions: ligand-binding difference spectroscopy; cited from earlier work
[4] = system: hCYP2C19; parameters: method as in PMID 35139770; conditions: ligand-binding difference spectroscopy; cited from earlier work

| Compound | inhibitory effects on all rCYP450s (potency class) [1] | binding to hCYP1A2 [2] | binding to hCYP3A4 [3] | binding to hCYP2C19 [4] |
| --- | --- | --- | --- | --- |
| C/C=C/C#CC#C/C=C/c1ccco1 [Atractylodin] | weak (weak (IC50 ≥ 50 µM)) |  |  |  |
| C=C1CCC[C@]2(C)CC[C@@H](C(C)(C)O)C[C@@H]12 [β-Eudesmol] |  | bound | bound | not |
